This note sets out measurements from PMC8856928, “A new strategy for hit generation: Novel in cellulo active inhibitors of CYP121A1 from Mycobacterium tuberculosis via a combined X-ray crystallographic and phenotypic screening approach (XP screen)” (European Journal of Medicinal Chemistry, 2022).

One assay has as its system Mtb H37Rv. Put plainly: Antimycobacterial activity assay (resazurin colorimetric, whole-cell). The conditions noted are these: Mycobacterium tuberculosis, H37RV. Type of assay: cell-based, Mycobacterium tuberculosis.
For assay [1], the target named is T1, CYP121A1 (Mycobacterium tuberculosis, UniProt P9WPP7).
T1 construct: made in house
Put plainly: biochemical. Type of assay: binding. The conditions noted are these: UV-Vis screen.

Another assay addresses T2, Mtb CYP121A1 (Mycobacterium tuberculosis, UniProt P9WPP7).
T2 construct: His6; made in house
Put plainly: biochemical. Type of assay: binding. The conditions noted are these: 25 °C, 50 μM CYP121A1, 10% DMSO-d6; read-out: Kd (ITC).

Assay [2] addresses T1, CYP121A1. Type of assay: biochemical. The conditions noted are these: 100 μM compound + 100 μM cYY.
Assay [3] concerns the target T1, CYP121A1. Type of assay: binding. The following applies: Kd for cYY over the cYY control.
Assay [4] concerns the target T1, CYP121A1. Put plainly: X-ray crystallographic screening (crystal soaking). The conditions noted are these: soaking experiments. The format is binding.

pKd: −log10 of the molar value. ≈ marks a conversion by molar mass, not a printed value. Read-outs that look alike come from different tables or passages of the source.

A word on the MIC90: it is the lowest concentration that inhibits either 90% of growth or 90% of the strains tested, depending on the study. A word on the pKd: it is the negative decadic logarithm of the Kd, by convention in mol/L.

T1 sequence (P9WPP7 whole entry): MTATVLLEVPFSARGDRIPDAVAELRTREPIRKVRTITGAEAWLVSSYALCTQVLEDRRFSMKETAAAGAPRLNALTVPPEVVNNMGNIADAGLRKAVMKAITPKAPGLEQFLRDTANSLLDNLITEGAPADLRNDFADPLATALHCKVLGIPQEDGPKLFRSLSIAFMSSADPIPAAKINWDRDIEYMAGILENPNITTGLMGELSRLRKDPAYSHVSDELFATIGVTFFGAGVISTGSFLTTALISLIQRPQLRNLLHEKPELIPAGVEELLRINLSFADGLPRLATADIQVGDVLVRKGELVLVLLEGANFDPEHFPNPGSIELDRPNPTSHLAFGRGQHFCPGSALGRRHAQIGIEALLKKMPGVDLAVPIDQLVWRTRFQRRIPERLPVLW
T2 sequence (P9WPP7 whole entry): as above

Take `c1ccc2c(CCc3ccnc(N4CCOCC4)n3)c[nH]c2c1` [Compound 14, 4-(4-(2-(1H-Indol-3-yl)ethyl)pyrimidin-2-yl)morpholine]: the MIC90 with Mtb H37Rv (168 h, Mtb H37Rv, 7H9 with low BSA (0.05% albumin, ADN), one week, read-out: MIC90 7H9-Low BSA) is 25 µM (≈ 7.71 µg/mL); in the assay with Mtb H37Rv (168 h, Mtb H37Rv, Middlebrook 7H9 with 10% ADC (BSA rich), one week, read-out: MIC90 c7H9), 25 µM (≈ 7.71 µg/mL); with Mtb H37Rv (336 h, Mtb H37Rv, Mycobacterial Minimal Medium with cholesterol, two weeks, read-out: MIC90 MMM-Ch), 12.5 µM (≈ 3.85 µg/mL); in the assay with Mtb H37Rv (medium not specified or span over the three growth media tested, read-out: MIC90 against Mtb strain H37Rv), 12.5 to 25 µM (≈ 3.85 to 7.71 µg/mL). For the same compound, the “Soret band shift (416.5 nm)” value at CYP121A1 [1] is “lack of shift”. Further, the pKd on Mtb CYP121A1 is ~4.00. Besides, the “Inhibition of CYP121A1 / production of mycocyclosin” value on CYP121A1 [2] is given as “markedly reduced the production of mycocyclosin”. For the same compound, the Fold increase at CYP121A1 [3] is 1.5. For the same compound, at CYP121A1 [4], the “X-ray crystallographic screening result” value is “hits”.
